Measurements: patent publication US11603378B2, “Azole silane compound” (Atotech Deutschland GmbH, priority 2018, dated 2023)

Assays:
Format in all cases: physicochemical
[1] = Solubility test: time until 50 g/L of compound is fully dissolved in glycol ether solvent; conditions: approx. 22° C., constant stirring, test carried out for 30 minutes; for t [min] DEGBE (time until fully dissolved): 50 g/L in diethylene glycol monobutyl ether; for t [min] EGBE (time until fully dissolved): 50 g/L in ethylene glycol monobutyl ether
Method: In a solubility test, solubility in diethylene glycol monobutyl ether (DEGBE) and ethylene glycol monobutyl ether (EGBE) as solvents was tested at approximately 22° C. under constant stirring. For that, the azole silane compound of Formula (Ia), obtained in Example A), 1), and the reference compound of formula (X) were dissolved in respective samples (mixtures).
In each solubility test the time “t” was determined until an amount of the respective compound in its highly viscous state, corresponding in each case to a concentration of 50 g/L of the azole silane compound (approximately corresponding to 5 wt.-%, based on the total weight of a respective test composition), was fully dissolved in the respective solvent. Each solubility test was carried out for 30 minutes.

[2] = Stability test of alkaline storage solution (precipitation in dependence of pH); design: key to precipitation, storage solution: xx = strong precipitation; x = little, insignificant precipitation; 0 = no precipitation; conditions: for precipitation, storage solution: 50° C., 4 wt.-% in 20 wt.-% water / 76 wt.-% DEGBE
Method: C-2i) Alkaline Storage Solution: In a first stability test, stability of a compound of formula (Ib) obtained in Example A), 3) was further investigated in dependence of the pH. For that purpose, various storage solutions (according to the present invention and not according to the present invention) have been prepared each comprising 200 mL/L water (corresponding to approximately 20 wt.-%), 800 mL/L DEGBE (corresponding to approximately 76 wt.-%), and a compound of formula (Ib) in a total amount of 4 wt.-%, based on the total weight of the respective storage solution. The various pH values were obtained by adding sodium hydroxide or sulfuric acid. The stability was evaluated after 1, 7, and 15 days by carefully determining the presence of any precipitates. During the stability tests, the temperature of each storage solution was 50° C.

[3] = Stability test of aqueous working solution (precipitation at various pH); design: key: xx = strong precipitation; x = little, insignificant precipitation; 0 = no precipitation; conditions: 50° C., approx. 1 wt.-%, 250 mL/L storage solution pH 11 + 750 mL/L water
Method: C-2ii) Aqueous Working Solution:
In a second stability test, stability of a compound of formula (Ib) also obtained in Example A), 3) was investigated at various pH values but with lower concentration compared to C-2i.
For that purpose, various working solutions (according to the present invention and not according to the present invention) have been prepared each comprising 250 mL/L of storage solution with pH 11 as described above under item C-2i and 750 mL/L water such that the compound of formula (Ib) was present in an total amount of approximately 1 wt.-%, based on the total weight of the respective working solution. The various pH values were obtained by adding sulfuric acid. The stability was evaluated after 14 days by carefully determining the presence of precipitates. During the stability tests, the temperature of each storage solution was kept constant at 50° C.

## CO[Si](CCCSc1nnc(N)[nH]1)(OC)OC [formula (X), reference compound]
[1]
  t [min] DEGBE (time until fully dissolved): 25 min
  t [min] EGBE (time until fully dissolved): > 30 min

## CO[Si](CCCOCC(O)CSc1nnc(N)s1)(OC)OC (stereo not shown) [formula (Ia)]
[1]
  t [min] DEGBE (time until fully dissolved): 12 min
  t [min] EGBE (time until fully dissolved): 10 min

## CO[Si](CCCOCC(O)CSc1nnc(N)[nH]1)(OC)OC (stereo not shown) [formula (Ib)]
[2]; comparatively high pH, concentrations of approximately 4 wt.-%
  stability in DEGBE storage solution (in words): stable
[2]; pH 4, 1 d
  precipitation, storage solution: xx
[2]; pH 4, 7 d
  precipitation, storage solution: xx
[2]; pH 4, 15 d
  precipitation, storage solution: xx
[2]; pH 7, 1 d
  precipitation, storage solution: xx
[2]; pH 7, 7 d
  precipitation, storage solution: xx
[2]; pH 7, 15 d
  precipitation, storage solution: xx
[2]; pH 10, 1 d
  precipitation, storage solution: x
[2]; pH 10, 7 d
  precipitation, storage solution: x
[2]; pH 10, 15 d
  precipitation, storage solution: x
[2]; pH 11, 1 d
  precipitation, storage solution: 0
[2]; pH 11, 7 d
  precipitation, storage solution: 0
[2]; pH 11, 15 d
  precipitation, storage solution: 0
[2]; pH 12, 1 d
  precipitation, storage solution: 0
[2]; pH 12, 7 d
  precipitation, storage solution: 0
[2]; pH 12, 15 d
  precipitation, storage solution: 0
[3]; pH 4, after 14 days
  precipitation, working solution: xx
[3]; pH 6, after 14 days
  precipitation, working solution: 0
[3]; pH 7, after 14 days
  precipitation, working solution: 0
[3]; pH 8, after 14 days
  precipitation, working solution: x
[3]; pH 10, after 14 days
  precipitation, working solution: xx
